Experimental data: paper PMC3691639, “Aldose reductase from Schistosoma japonicum: crystallization and structure-based inhibitor screening for discovering antischistosomal lead compounds” (Parasites & Vectors, 2013)
pIC50: −log10 of the molar value.

Target: T1, recombinant Schistosoma japonicum aldose reductase (rSjAR; SjAR) (Schistosoma japonicum, UniProt Q5DD64)
T1 construct: gene Akr1b4; SjAR-pET28a plasmid, expressed in E. coli BL21(DE3)
T1 sequence (Q5DD64 1-310): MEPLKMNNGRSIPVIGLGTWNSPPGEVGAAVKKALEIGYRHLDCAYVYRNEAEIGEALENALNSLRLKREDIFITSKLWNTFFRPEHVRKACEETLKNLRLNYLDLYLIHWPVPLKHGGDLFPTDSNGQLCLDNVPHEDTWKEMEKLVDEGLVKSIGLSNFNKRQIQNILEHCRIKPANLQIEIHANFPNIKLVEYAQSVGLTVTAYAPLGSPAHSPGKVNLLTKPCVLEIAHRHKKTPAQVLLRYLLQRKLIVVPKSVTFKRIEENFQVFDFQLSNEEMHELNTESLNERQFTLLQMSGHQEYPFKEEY
Test: NADPH depletion at […] nm, microplate
Type: biochemical

Work on `O=C1c2ccccc2C(=C2c3ccccc3C(=O)c3ccccc32)c2ccccc21` [AR9] yielded a pIC50 of 4.51.
